Data on 23 molecules can be found in patent US9914736B2, “TrKA kinase inhibitors, compositions and methods thereof” (Merck Sharp & Dohme Corp., priority 2014, dated 2018).

The target of this experiment is human TrkA receptor (Homo sapiens (Human), UniProt P04629). The experiment can be described thus: DiscoverX PathHunter TrkA functional assay. Type of experiment: cell-based. The conditions noted are these: U2OS cells expressing human TrkA-ProLink, Shc1-EA and p75NTR; compound 1 h, then NGF at ~80% of maximal response for 3 h; luminescence.
Sequence of human TrkA receptor (P04629 33-796): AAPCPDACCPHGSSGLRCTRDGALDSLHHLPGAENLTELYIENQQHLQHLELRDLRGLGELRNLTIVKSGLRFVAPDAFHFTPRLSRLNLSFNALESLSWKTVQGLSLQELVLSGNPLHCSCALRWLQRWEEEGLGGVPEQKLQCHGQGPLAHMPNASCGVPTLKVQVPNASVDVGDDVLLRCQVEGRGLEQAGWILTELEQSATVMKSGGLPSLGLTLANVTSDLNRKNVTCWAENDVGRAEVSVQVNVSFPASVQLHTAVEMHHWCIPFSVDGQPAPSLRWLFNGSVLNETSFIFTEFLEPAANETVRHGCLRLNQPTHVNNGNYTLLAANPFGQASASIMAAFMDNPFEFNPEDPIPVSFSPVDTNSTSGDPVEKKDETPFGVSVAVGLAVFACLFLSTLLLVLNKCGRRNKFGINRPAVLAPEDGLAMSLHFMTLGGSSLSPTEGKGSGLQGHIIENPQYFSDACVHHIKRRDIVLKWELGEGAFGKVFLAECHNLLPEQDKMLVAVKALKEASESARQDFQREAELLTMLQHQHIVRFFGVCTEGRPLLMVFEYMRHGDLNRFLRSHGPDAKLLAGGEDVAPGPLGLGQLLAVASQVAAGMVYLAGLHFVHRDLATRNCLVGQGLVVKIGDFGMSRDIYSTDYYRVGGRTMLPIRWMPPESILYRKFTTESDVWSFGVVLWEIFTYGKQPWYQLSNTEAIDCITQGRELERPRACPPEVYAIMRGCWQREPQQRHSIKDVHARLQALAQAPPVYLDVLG

Protocol: TrkA functional activity was measured using a DiscoverX PathHunter assay. In this assay, U2OS cells express the human TrkA receptor as a fusion with the weakly complementing fragment of B-galactosidase, which DiscoverX calls “Prolink (PK)”; additionally, Shc1 is fused with a larger fragment, which is called “Enzyme Acceptor (EA)”. Activation of the TrkA receptor, upon NGF addition, results in the kinase domain being phosphorylated, resulting in subsequent recruitment of Shc1-EA protein. That recruitment results in an active B-galactosidase enzyme that is detected by addition of a chemiluminescent substrate. The human p75^NTR protein was also expressed as a co-receptor for NGF.
All reagents were purchased from DiscoverX, except for the receptor agonists (NGF, BDNF, NT3) which were purchased from Peprotech. Cells were expanded and frozen into cryovials, and stored in the vapor phase of liquid nitrogen, and thawed immediately before use. Thawed cells were added to a 384-well plate at 7500 cells/well, and allowed to incubate overnight. Compound at various concentrations was added the following morning and allowed to incubate on cells for 1 h. Then, NGF was added at a concentration sufficient to elicit ˜80% of a maximal response and allowed to incubate for 3 h at ambient temperature. DiscoverX PathHunter detection reagent was then added and the plate was further incubated for 1 h in the dark. The plate was then read via luminescence on the Perkin Elmer Envision.

Turning to `Cc1cc(-n2nc(CNCCO)cc2NC(=O)c2ccc(C(F)(F)F)c(-c3ccn(C)n3)c2)[nH]n1` [Compound 68, N-(3-{[(2-hydroxyethyl)amino]methyl}-5′-methyl-2′H-1,3′-bipyrazol-5-yl)-3-(1-methyl-1H-pyrazol-3-yl)-4-(trifluoromethyl)benzamide], the midpoint of inhibition, the IC50, lay at 240 nM.

As to `Cc1cc(NC(=O)c2ccc(OC(F)(F)F)c(-c3ccn(C)n3)c2)n(-c2ccc(F)cc2)n1` [Compound 73, N-[1-(4-fluorophenyl)-3-methyl-1H-pyrazol-5-yl]-3-(1-methyl-1H-pyrazol-3-yl)-4-(trifluoromethoxy)benzamide], the midpoint of inhibition, the IC50, lay at 57 nM.

In the case of `Cc1cc(-c2nn(C)cc2NC(=O)c2ccc(C(F)(F)F)c(-c3ccn(C)n3)c2)[nH]n1` [Compound 74, N-(1,5′-dimethyl-1H,2′H-3,3′-bipyrazol-4-yl)-3-(1-methyl-1H-pyrazol-3-yl)-4-(trifluoromethyl)benzamide], the midpoint of inhibition, the IC50, lay at 180 nM.

On to `O=C(Nc1cc(Cn2cccn2)nn1-c1ccc(F)cc1)c1cc(-c2ncccn2)c(C(F)(F)F)cc1F` [Compound 87, N-(3-((1H-pyrazol-1-yl)methyl)-1-(4-fluorophenyl)-1H-pyrazol-5-yl)-2-fluoro-5-(pyrimidin-2-yl)-4-(trifluoromethyl)benzamide], for which half-maximal inhibition (IC50) required 6.6 nM.

The molecule `Cc1cc(NC(=O)c2cc(-c3cc[nH]n3)ccc2Cl)n(-c2cc(C)[nH]n2)n1` [Compound 54, 2-chloro-N-(3,5′-dimethyl-1′H-1,3′-bipyrazol-5-yl)-5-(1H-pyrazol-3-yl)benzamide] showed an IC50 of 490 nM.

For `Cn1ccc(-c2cc(C(=O)Nc3c(-c4ccccc4)ncn3C)ccc2C(F)(F)F)n1` [Compound 12, N-(1-methyl-4-phenyl-1H-imidazol-5-yl)-3-(1-methyl-1H-pyrazol-3-yl)-4-(trifluoromethyl)benzamide], the IC50 came to 19 nM.

In turn, `Cn1ccc(-c2cc(C(=O)Nc3cc(-c4ccc(=O)[nH]n4)nn3-c3ccccc3)c(Cl)cc2C(F)(F)F)n1` [Compound 55, 2-chloro-5-(1-methyl-1H-pyrazol-3-yl)-N-[3-(6-oxo-1,6-dihydropyridazin-3-yl)-1-phenyl-1H-pyrazol-5-yl]-4-(trifluoromethyl)benzamide] yielded an IC50 of 1.6 nM.

In turn, `CNC(=O)Cn1nnc(Cc2cc(NC(=O)c3ccc(C(F)(F)F)c(-c4ccn(C)n4)c3)n(-c3ccc(F)cc3)n2)n1` [Compound 78, N-[1-(4-fluorophenyl)-3-({2-[2-(methylamino)-2-oxoethyl]-2H-tetrazol-5-yl}methyl)-1H-pyrazol-5-yl]-3-(1-methyl-1H-pyrazol-3-yl)-4-(trifluoromethyl)benzamide] yielded an IC50 of 1.6 nM.

On to `NC(=O)c1ccc(-c2cc(NC(=O)c3cc(-c4ncccn4)c(C(F)(F)F)cc3F)n(-c3ccc(F)cc3)n2)cc1` [Compound 81, N-[3-(4-carbamoylphenyl)-1-(4-fluorophenyl)-1H-pyrazol-5-yl]-2-fluoro-5-pyrimidin-2-yl-4-(trifluoromethyl)benzamide], for which the IC50 was found to be 0.76 nM.

With `Cc1cc(-n2nc(-c3cnn(C)c3)cc2NC(=O)c2ccc(C(F)(F)F)c(-c3cccnc3)c2)n[nH]1` [Compound 8, N-(1″,5-dimethyl-1H,1″H-3,1′:3′,4″-terpyrazol-5′-yl)-3-pyridin-3-yl-4-(trifluoromethyl)benzamide], the midpoint of inhibition, the IC50, lay at 2100 nM.

As to `Cc1csc(-c2cc(C(=O)Nc3cc(-c4ccncc4)nn3-c3ccccc3)ccc2Cl)n1` [Compound 21, 4-chloro-3-(4-methyl-1,3-thiazol-2-yl)-N-(1-phenyl-3-pyridin-4-yl-1H-pyrazol-5-yl)benzamide], the IC50 was 2.7 nM.

Take `O=C(Nc1cc(-c2ccncc2)nn1-c1ccc(F)cc1)c1ccc(Cl)c(-c2cc[nH]n2)c1` [Compound 42, 4-chloro-N-[1-(4-fluorophenyl)-3-pyridin-4-yl-1H-pyrazol-5-yl]-3-(1H-pyrazol-3-yl)benzamide]: the IC50 was 110 nM.

Take `Cc1cc(-n2nc(CO)cc2NC(=O)c2ccc(C(F)(F)F)c(-c3ccn(C)n3)c2)[nH]n1` [Compound 51]: the IC50 stood at 2.9 nM.

On to `Cn1ccc(-c2cc(C(=O)Nc3cc(Cc4cncnc4)nn3-c3ccc(F)cc3)ccc2C(F)(F)F)n1` [Compound 95, N-(1-(4-fluorophenyl)-3-(pyrimidin-5-ylmethyl)-1H-pyrazol-5-yl)-3-(1-methyl-1H-pyrazol-3-yl)-4-(trifluoromethyl)benzamide], for which half-maximal inhibition (IC50) was put at 1.4 nM.

Turning to `Cn1ccc(-c2cc(C(=O)Nc3cc(Cc4nnc(N)o4)nn3-c3ccc(F)cc3)ccc2C(F)(F)F)n1` [Compound 92, N-(3-((5-amino-1,3,4-oxadiazol-2-yl)methyl)-1-(4-fluorophenyl)-1H-pyrazol-5-yl)-3-(1-methyl-1H-pyrazol-3-yl)-4-(trifluoromethyl)benzamide], the IC50 stood at 1.3 nM.

`O=C(Nc1cc(C(=O)N2CCC2)nn1-c1ccc(F)cc1)c1cc(-c2ncccn2)c(C(F)(F)F)cc1F` [Compound 88, N-(3-(azetidine-1-carbonyl)-1-(4-fluorophenyl)-1H-pyrazol-5-yl)-2-fluoro-5-(pyrimidin-2-yl)-4-(trifluoromethyl)benzamide]: the IC50 amounted to 14 nM.

The molecule `Cc1nc(NC(=O)c2ccc(C(F)(F)F)c(-c3ccn(C)n3)c2)c(-c2ccccc2)s1` [Compound 72, N-(2-methyl-5-phenyl-1,3-thiazol-4-yl)-3-(1-methyl-1H-pyrazol-3-yl)-4-(trifluoromethyl)benzamide] returned an IC50 of 62 nM.

`Cn1ccc(-c2cc(C(=O)Nc3cn[nH]c3-c3ccccc3)c(Cl)cc2C(F)(F)F)n1` [Compound 49, 2-chloro-5-(1-methyl-1H-pyrazol-3-yl)-N-(5-phenyl-1H-pyrazol-4-yl)-4-(trifluoromethyl)benzamide] returned an IC50 of 5.8 nM.

With `CNC(=O)Cc1cc(NC(=O)c2cc(-c3ccn(C)n3)c(C(F)(F)F)cc2F)n(-c2ccc(F)cc2)n1` [Compound 114, 2-fluoro-N-(1-(4-fluorophenyl)-3-(2-(methylamino)-2-oxoethyl)-1H-pyrazol-5-yl)-5-(1-methyl-1H-pyrazol-3-yl)-4-(trifluoromethyl)benzamide], the concentration for half-maximal inhibition (IC50) was determined as 2.4 nM.

Regarding `O=C(Nc1cc(-c2ccc(=O)[nH]n2)nn1-c1ccccc1)c1ccc(C(F)(F)F)cc1Cl` [Compound 10, 2-chloro-N-[3-(6-oxo-1,6-dihydropyridazin-3-yl)-1-phenyl-1H-pyrazol-5-yl]-4-(trifluoromethyl)benzamide], the IC50 came to 290 nM.

As to `Cn1ccc(-c2cc(C(=O)Nc3cc(Cc4nnn(C)n4)nn3-c3ccc(F)cc3)c(F)cc2C(F)(F)F)n1` [Compound 85, 2-fluoro-N-(1-(4-fluorophenyl)-3-((2-methyl-2H-tetrazol-5-yl)methyl)-1H-pyrazol-5-yl)-5-(1-methyl-1H-pyrazol-3-yl)-4-(trifluoromethyl)benzamide], the IC50 was 1.2 nM.

In the case of `O=C(NC1CC1)c1cc(NC(=O)c2ccc(C(F)(F)F)cc2Cl)n(-c2ccccc2)n1` [Compound 2, 5-({[2-chloro-4-(trifluoromethyl)phenyl]carbonyl}amino)-N-cyclopropyl-1-phenyl-1H-pyrazole-3-carboxamide], 60 nM corresponded to half-maximal inhibition (IC50).

The molecule `O=C(Nc1cc(-c2ccncc2)nn1-c1cc(C(F)(F)F)n[nH]1)c1ccc(Cl)c(-c2cc[nH]n2)c1` [Compound 41, 4-chloro-3-(1H-pyrazol-3-yl)-N-[3-pyridin-4-yl-5′-(trifluoromethyl)-2′H-1,3′-bipyrazol-5-yl]benzamide] registered an IC50 of 240 nM.

As usually defined, the IC50 is the concentration needed to halve the response being measured. A low value points to higher potency.
